Results as given in publication PMC7567103 (Nature Communications, 2020).

What was measured:
[1] = biological target: T1, GHRHR(23-405)-15AA-LgBiT-2MBP (Homo sapiens, UniProt Q02643); test: whole cell binding, competitive inhibition of 125I-GHRH (Supplementary Fig. 2c); details: competition with 80 pM 125I-GHRH; whole HEK 293T cells, RT 3 h; mean ± SEM, n = 7-8
T1 construct: 24 h after transfection with GHRHR(23-423), GHRHR(23-405), GHRHR(23-405)-LgBiT-2MBP, or HA-Flag-GHRHR (WT and mutants); HA signal peptide (replaces native signal M1-G22) (N); expressed in transfected cells; host or cells: HEK 293 T
T1 sequence (Q02643 23-405): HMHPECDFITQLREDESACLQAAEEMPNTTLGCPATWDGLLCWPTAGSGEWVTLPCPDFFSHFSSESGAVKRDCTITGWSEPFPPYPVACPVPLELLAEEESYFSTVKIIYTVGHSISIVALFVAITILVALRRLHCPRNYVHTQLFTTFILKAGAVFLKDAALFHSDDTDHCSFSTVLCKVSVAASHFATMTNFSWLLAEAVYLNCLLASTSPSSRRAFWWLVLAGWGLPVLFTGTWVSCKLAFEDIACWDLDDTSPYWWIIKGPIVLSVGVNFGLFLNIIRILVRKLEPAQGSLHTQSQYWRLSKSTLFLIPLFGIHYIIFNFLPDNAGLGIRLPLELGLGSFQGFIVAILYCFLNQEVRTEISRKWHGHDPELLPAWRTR
Description: (§1) This assay was conducted in 96-well Iso-plates (PerkinElmer) coated with poly-D-lysine hydrobromide (Sigma-Aldrich). Twenty-four hour after transfection with GHRHR(23-423) or GHRHR(23-405)-LgBiT-2MBP, HEK 293 T cells were washed twice, and incubated with blocking buffer (DMEM medium supplemented with 33 mM HEPES, and 0.1% (w/v) BSA, pH 7.4) for 2 h at 37 °C. Then, radiolabeled ^125I-GHRH (80 pM, Phoenix Biotech) and seven decreasing concentrations of unlabeled peptide (10 μM, […]) were added and competitively reacted with the cells in binding buffer (PBS supplemented with 10% (w/v) BSA, pH 7.4) at RT for 3 h. Cells were washed with ice-cold PBS and lysed by 50 μL lysis buffer (PBS supplemented with 20 mM Tris-HCl and 1% (v/v) Triton X-100, pH 7.4). Finally, 150 μL of scintillation cocktail (OptiPhase SuperMix, PerkinElmer) was employed and radioactivity (counts per minute) read in a scintillation counter (MicroBeta[2] plate counter, PerkinElmer).
(§2) 93 of transfection. Data are normalized by the WT receptor and fitted with a three-
(§3) 94 parameter logistic equation. All values are means ± S.E.M. of at least three […]
(§4) Binding affinity is quantified by
(§5) 97 reduction of radioactivity (counts per minute, CPM) and normalized to the […]
(§6) 231 Binding data were analyzed using a three-parameter logistic equation to […]
(§7) 234 determine statistical difference. *P<0.01; ND, not determined.

GHRHR(23-423) (WT) = biological target: T2, GHRHR(23-423) (WT) (Homo sapiens, UniProt Q02643); test: as above; details: competition with 80 pM 125I-GHRH; whole HEK 293T cells, RT 3 h; mean ± SEM, n = 7-8
T2 construct: 24 h after transfection with GHRHR(23-423), GHRHR(23-405), GHRHR(23-405)-LgBiT-2MBP, or HA-Flag-GHRHR (WT and mutants); HA signal peptide (replaces native signal M1-G22) (N); expressed in transfected cells; host or cells: HEK 293 T
T2 sequence (Q02643 23-423): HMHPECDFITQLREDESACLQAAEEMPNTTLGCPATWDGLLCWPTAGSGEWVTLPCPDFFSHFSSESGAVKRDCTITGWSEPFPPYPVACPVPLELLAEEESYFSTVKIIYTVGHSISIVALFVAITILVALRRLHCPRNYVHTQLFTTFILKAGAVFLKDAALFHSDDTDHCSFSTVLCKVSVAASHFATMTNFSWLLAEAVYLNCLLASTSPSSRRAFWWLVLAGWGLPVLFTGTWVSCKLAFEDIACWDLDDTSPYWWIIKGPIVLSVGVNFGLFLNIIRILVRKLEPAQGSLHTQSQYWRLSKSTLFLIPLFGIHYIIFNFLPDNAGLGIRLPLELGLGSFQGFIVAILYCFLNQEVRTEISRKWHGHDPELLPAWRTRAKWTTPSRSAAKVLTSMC
Description: as §1, §2, §3, §4, §5, §6, §7

Which results are given for `CC[C@H](C)[C@H](NC(=O)[C@H](C)NC(=O)[C@H](CC(=O)O)NC(=O)[C@H](C)NC(=O)[C@@H](N)Cc1ccc(O)cc1)C(=O)N[C@@H](Cc1ccccc1)C(=O)N[C@H](C(=O)N[C@@H](CC(N)=O)C(=O)N[C@@H](CO)C(=O)N[C@@H](Cc1ccc(O)cc1)C(=O)N[C@@H](CCCNC(=N)N)C(=O)N[C@@H](CCCCN)C(=O)N[C@H](C(=O)N[C@@H](CC(C)C)C(=O)NCC(=O)N[C@@H](CCC(N)=O)C(=O)N[C@@H](CC(C)C)C(=O)N[C@@H](CO)C(=O)N[C@@H](C)C(=O)N[C@@H](CCCNC(=N)N)C(=O)N[C@@H](CCCCN)C(=O)N[C@@H](CC(C)C)C(=O)N[C@@H](CC(C)C)C(=O)N[C@@H](CCC(N)=O)C(=O)N[C@@H](CC(=O)O)C(=O)N[C@H](C(=O)N[C@@H](CCSC)C(=O)N[C@@H](CO)C(=O)N[C@@H](CCCNC(=N)N)C(=O)N[C@@H](CCC(N)=O)C(=O)N[C@@H](CCC(N)=O)C(=O)NCC(=O)N[C@@H](CCC(=O)O)C(=O)N[C@@H](CO)C(=O)N[C@@H](CC(N)=O)C(=O)N[C@@H](CCC(N)=O)C(=O)N[C@@H](CCC(=O)O)C(=O)N[C@@H](CCCNC(=N)N)C(=O)NCC(=O)N[C@@H](C)C(=O)N[C@@H](CCCNC(=N)N)C(=O)N[C@@H](C)C(=O)N[C@@H](CCCNC(=N)N)C(=O)N[C@@H](CC(C)C)C(N)=O)[C@@H](C)CC)C(C)C)[C@@H](C)O` [GHRH, Growth hormone-releasing hormone]?
IC50 [1]: 0.879 nM; IC50 (GHRHR(23-423) (WT)): 2.75 nM
